Measurements: US20160272626A1, “PYRAZINE DERIVATIVES” (HOFFMANN-LA ROCHE INC., priority 2012, published 2016)
Counter-ions that a name gives are not always drawn.

Columns and labels:
[1] = target: T1, mouse TAAR1 (Mus musculus, UniProt Q923Y8); assay: Radioligand binding assay on mouse TAAR1; conditions: mouse TAAR1, HEK-293 membranes, first value of cell mouse/rat
T1 construct: expressed in transfected cells; membrane preparation
Method: (§1) For the construction of expression plasmids the coding sequences of human, rat and mouse TAAR 1 were amplified from genomic DNA essentially as described by Lindemann et al.. The Expand High Fidelity PCR System (Roche Diagnostics) was used with 1.5 mM Mg^2+ and purified PCR products were cloned into pCR2.1-TOPO cloning vector (Invitrogen) following the instructions of the manufacturer. PCR products were subcloned into the pIRESneo2 vector (BD Clontech, Palo Alto, Calif.), and expression vectors were sequence verified before introduction in cell lines.
(§2) HEK293 cells (ATCC # CRL-1573) were cultured essentially as described by Lindemann et al. (2005). For the generation of stably transfected cell lines HEK293 cells were transfected with the pIRESneo2 expression plasmids containing the TAAR coding sequences (described above) with Lipofectamine 2000 (Invitrogen) according to the instructions of the manufacturer, and 24 hrs post transfection the culture medium was supplemented with 1 mg/ml G418 (Sigma, Buchs, Switzerland). After a culture period of about 10 d clones were isolated, expanded and tested for responsiveness to trace amines (all compounds purchased from Sigma) with the cAMP Biotrak Enzyme immunoassay (EIA) System (Amersham) following the non-acetylation EIA procedure provided by the manufacturer.
Radioligand Binding Assay on Mouse TAAR1
(§3) Membrane Preparation and Radioligand Binding.
HEK-293 cells stably expressing mouse TAAR1 were maintained at 37° C. and 5% CO2 in DMEM high glucose medium, containing fetal calf serum (10%, heat inactivated for 30 min at 56° C.), penicillin/streptomycin (1%), and 375 μg/ml geneticin (Gibco). Cells were released from culture flasks using trypsin/EDTA, harvested, washed twice with ice-cold PBS (without Ca^2+ and Mg^2+), pelleted at 1,000 rpm for 5 min at 4° C., frozen and stored at −80° C. Frozen pellets were suspended in 20 ml HEPES-NaOH (20 mM, pH 7.4) containing 10 mM EDTA and homogenized with a Polytron (PT 6000, Kinematica) at 14,000 rpm for 20 s. The homogenate was centrifuged at 48,000×g for 30 min at 4° C. Subsequently, the supernatant was removed and discarded, and the pellet resuspended in 20 ml HEPES-NaOH (20 mM, pH 7.4) containing 0.1 mM EDTA using the Polytron (20 s at 14,000 rpm). This procedure was repeated and the final pellet resuspended in HEPES-NaOH containing 0.1 mM EDTA and homogenized using the Polytron. Typically, aliquots of 2 ml membrane portions were stored at −80° C. With each new membrane batch the dissociation constant (Kd) was determined via a saturation curve. The TAAR1 radioligand ^3[H]—(S)-4-[(ethyl-phenyl-amino)-methyl]-4,5-dihydro-oxazol-2-ylamine (described in WO 2008/098857) was used at a concentration equal to the calculated Kd value, that was usually around 0.7 nM, resulting in the binding of approximately 0.5% of the radioligand and a specific binding representing approximately 70% of the total binding. Nonspecific binding was defined as the amount of ^3[H]—(S)-4-[(ethyl-phenyl-amino)-methyl]-4,5-dihydro-oxazol-2-ylamine bound in the presence of 10 μM unlabeled ligand. All compounds were tested at a broad range of concentrations (10 pM to 10 μM) in duplicates. The test compounds (20 μl/well) were transferred into a 96 deep well plate (TreffLab), and 180 μl of HEPES-NaOH (20 mM, pH 7.4) containing MgCl2 (10 mM) and CaCl2 (2 mM) (binding buffer), 300 μl of the radioligand ^3[H]—(S)-4-[(ethyl-phenyl-amino)-methyl]-4,5-dihydro-oxazol-2-ylamine at a concentration of 3.3×Kd in nM and 500 μl of the membranes (resuspended at 60 μg protein per ml) added. The 96 deep well plates were incubated for 1 hr at 4° C. Incubations were terminated by rapid filtration through Unifilter-96 plates (Packard Instrument Company) and glass filters GF/C (Perkin Elmer) presoaked for 1 hr in polyethylenimine (0.3%) and washed 3 times with 1 ml of cold binding buffer. […]

[2] = target: T2, rat TAAR1 (Rattus norvegicus, UniProt Q923Y9); assay: Radioligand binding assay on rat TAAR1; conditions: rat TAAR1, HEK-293 membranes, second value of cell mouse/rat
T2 construct: expressed in transfected cells; membrane preparation
Method: as §1, §2
Radioligand Binding Assay on Rat TAAR1
as §3
HEK-293 cells stably expressing rat TAAR1 were maintained at 37° C. and 5% CO2 in DMEM high glucose medium, containing fetal calf serum (10%, heat inactivated for 30 min at 56° C.), penicillin/streptomycin (1%), and 375 μg/ml geneticin (Gibco). Cells were released from culture flasks using trypsin/EDTA, harvested, washed twice with ice-cold PBS (without Ca^2+ and Mg^2+), pelleted at 1,000 rpm for 5 min at 4° C., frozen and stored at −80° C. Frozen pellets were suspended in 20 ml HEPES-NaOH (20 mM, pH 7.4) containing 10 mM EDTA and homogenized with a Polytron (PT 6000, Kinematica) at 14,000 rpm for 20 s. The homogenate was centrifuged at 48,000×g for 30 min at 4° C. Subsequently, the supernatant was removed and discarded, and the pellet resuspended in 20 ml HEPES-NaOH (20 mM, pH 7.4) containing 0.1 mM EDTA using the Polytron (20 s at 14,000 rpm). This procedure was repeated and the final pellet resuspended in HEPES-NaOH containing 0.1 mM EDTA and homogenized using the Polytron. Typically, aliquots of 2 ml membrane portions were stored at −80° C. With each new membrane batch the dissociation constant (Kd) was determined via a saturation curve. […] Nonspecific binding was defined as the amount of ^3[H]—(S)-4-[(ethyl-phenyl-amino)-methyl]-4,5-dihydro-oxazol-2-ylamine bound in the presence of 10 μM unlabeled ligand. All compounds were tested at a broad range of concentrations (10 pM to 10 μM) in duplicates. The test compounds (20 μl/well) were transferred into a 96 deep well plate (TreffLab), and 180 μl of HEPES-NaOH (20 mM, pH 7.4) containing MgCl2 (10 mM) and CaCl2 (2 mM) (binding buffer), 300 μl of the radioligand ^3[H]—(S)-4-[(ethyl-phenyl-amino)-methyl]-4,5-dihydro-oxazol-2-ylamine at a concentration of 3.3×Kd in nM and 500 μl of the membranes (resuspended at 50 μg protein per ml) added. The 96 deep well plates were incubated for 1 hr at 4° C. Incubations were terminated by rapid filtration through Unifilter-96 plates (Packard Instrument Company) and glass filters GF/C (Perkin Elmer) presoaked for 1 hr in polyethylenimine (0.3%) and washed 3 times with 1 ml of cold binding buffer. After addition of 45 μl of Microscint 40 (PerkinElmer) the Unifilter-96 plate was sealed and after 1 hr the […] counted using a TopCount Microplate Scintillation Counter (Packard Instrument Company).

T1 sequence (Q923Y8 whole entry): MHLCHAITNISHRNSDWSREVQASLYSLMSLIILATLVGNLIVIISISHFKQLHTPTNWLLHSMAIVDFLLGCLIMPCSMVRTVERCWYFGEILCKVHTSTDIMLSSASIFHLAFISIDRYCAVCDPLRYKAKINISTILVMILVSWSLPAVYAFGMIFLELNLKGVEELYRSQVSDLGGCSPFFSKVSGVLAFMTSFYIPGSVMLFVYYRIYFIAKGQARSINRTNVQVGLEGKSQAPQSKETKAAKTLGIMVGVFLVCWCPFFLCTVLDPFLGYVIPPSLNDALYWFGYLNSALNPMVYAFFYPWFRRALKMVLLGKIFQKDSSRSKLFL
T2 sequence (Q923Y9 whole entry): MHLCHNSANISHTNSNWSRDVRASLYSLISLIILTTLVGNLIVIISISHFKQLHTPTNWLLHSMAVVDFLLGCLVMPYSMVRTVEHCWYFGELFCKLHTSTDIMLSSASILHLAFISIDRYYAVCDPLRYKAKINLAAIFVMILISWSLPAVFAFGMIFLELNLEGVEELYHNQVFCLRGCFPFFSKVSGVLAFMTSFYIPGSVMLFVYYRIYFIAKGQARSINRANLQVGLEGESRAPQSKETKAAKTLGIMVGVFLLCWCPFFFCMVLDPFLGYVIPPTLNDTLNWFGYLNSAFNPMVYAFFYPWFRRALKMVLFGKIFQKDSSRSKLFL

SMILES	Ki [1]	Ki [2]
O=C(Nc1ccc([C@H]2CNCCO2)c(F)c1)c1cnc(OCC(F)(F)F)cn1 [Example 24, (S)—N-(3-Fluoro-4-(morpholin-2-yl)phenyl)-5-(2,2,2-trifluoroethoxy)pyrazine-2-carboxamide]	0.0042 µM	0.0202 µM
O=C(Nc1ccc([C@@H]2CNCCO2)cc1F)c1cncc(OCC(F)(F)F)n1 [Example 29, (R)—N-(2-Fluoro-4-(morpholin-2-yl)phenyl)-6-(2,2,2-trifluoroethoxy)pyrazine-2-carboxamide]	0.0447 µM	0.0053 µM
O=C(Nc1ccc([C@@H]2CNCCO2)c(F)c1)c1cncc(OCC(F)(F)F)n1 [Example 30, (R)—N-(3-Fluoro-4-(morpholin-2-yl)phenyl)-6-(2,2,2-trifluoroethoxy)pyrazine-2-carboxamide]	0.0292 µM	0.0035 µM
O=C(Nc1ccc([C@H]2CNCCO2)c(F)c1)c1cncc(C(F)(F)F)n1 [Example 5, (S)—N-(3-Fluoro-4-(morpholin-2-yl)phenyl)-6-(trifluoromethyl)pyrazine-2-carboxamide hydrochloride]	0.038 µM	0.054 µM
O=C(Nc1ccc([C@H]2CNCCO2)c(F)c1)c1cnc(OCC2CC2)cn1 [Example 12, (S)-5-(Cyclopropylmethoxy)-N-(3-fluoro-4-(morpholin-2-yl)phenyl)pyrazine-2-carboxamide hydrochloride]	0.0045 µM	0.04 µM
CCOc1cnc(C(=O)Nc2ccc([C@H]3CNCCO3)c(F)c2)cn1 [Example 13, (S)-5-Ethoxy-N-(3-fluoro-4-(morpholin-2-yl)phenyl)pyrazine-2-carboxamide hydrochloride]	0.0041 µM	0.11 µM

Continued by falling Ki [1], values first:

Ki [1]	Ki [2]	SMILES
0.0167 µM	0.0032 µM	O=C(Nc1ccc([C@H]2CNCCO2)c(F)c1)c1cncc(OCC(F)(F)F)n1 [Example 26, (S)—N-(3-Fluoro-4-(morpholin-2-yl)phenyl)-6-(2,2,2-trifluoroethoxy)pyrazine-2-carboxamide]
0.0115 µM	0.009 µM	O=C(Nc1ccc([C@@H]2CNCCO2)c(F)c1)c1cnc(C(F)(F)F)cn1 [Example 1, (R)—N-(3-Fluoro-4-(morpholin-2-yl)phenyl)-5-(trifluoromethyl)pyrazine-2-carboxamide hydrochloride]
0.0107 µM	0.0476 µM	COc1cnc(C(=O)Nc2ccc([C@@H]3CNCCO3)c(F)c2)cn1 [Example 8, (R)—N-(3-Fluoro-4-(morpholin-2-yl)phenyl)-5-methoxypyrazine-2-carboxamide hydrochloride]
0.0072 µM	0.0076 µM	O=C(Nc1ccc([C@@H]2CNCCO2)c(F)c1)c1cnc(C2CC2)cn1 [Example 17, 5-Cyclopropyl-pyrazine-2-carboxylic acid ((R)-3-fluoro-4-morpholin-2-yl-phenyl)-amide hydrochloride]
0.0053 µM	0.0037 µM	O=C(Nc1ccc([C@@H]2CNCCO2)c(F)c1)c1cnc(OCC(F)(F)F)cn1 [Example 28, (R)—N-(3-Fluoro-4-(morpholin-2-yl)phenyl)-5-(2,2,2-trifluoroethoxy)pyrazine-2-carboxamide]
